Source: patent publication US11034725B2, “Compositions and methods for treating cardiovascular disease” (Genentech, Inc., priority 2016, dated 2021)
Where two headings read alike, the source gives them in different places. Bridge positions count the residues as written; N and C are the ends. Square brackets hold non-standard residues; d marks the D form. Peptide text beside a SMILES is read from it. Aun = NCCCCCCCCCCC(=O)O

Key:
PCSK9Δhelix = molecular target: T1, PCSK9Δhelix (Homo sapiens, UniProt Q8NBP7); assay: PCSK9Δhelix/Ab20 TR-FRET binding assay
T1 construct: Human PCSK9 construct M1-Q692 with an engineered TEV site (residue deletion Y166, R167); made in house; host or cells: CHO

His-EGF(A)-Fc = His-EGF(A)-Fc TR-FRET counterscreen
[1] = TR-FRET, Example 7, read-out: PCSK9Δhelix/Ab20 IC50
[2] = TR-FRET counterscreen, Table 8D, * = some inhibition at highest concentrations, not sufficient to fit an IC50

T1 sequence (Q8NBP7 with tags, fused parts or gaps limits assumed): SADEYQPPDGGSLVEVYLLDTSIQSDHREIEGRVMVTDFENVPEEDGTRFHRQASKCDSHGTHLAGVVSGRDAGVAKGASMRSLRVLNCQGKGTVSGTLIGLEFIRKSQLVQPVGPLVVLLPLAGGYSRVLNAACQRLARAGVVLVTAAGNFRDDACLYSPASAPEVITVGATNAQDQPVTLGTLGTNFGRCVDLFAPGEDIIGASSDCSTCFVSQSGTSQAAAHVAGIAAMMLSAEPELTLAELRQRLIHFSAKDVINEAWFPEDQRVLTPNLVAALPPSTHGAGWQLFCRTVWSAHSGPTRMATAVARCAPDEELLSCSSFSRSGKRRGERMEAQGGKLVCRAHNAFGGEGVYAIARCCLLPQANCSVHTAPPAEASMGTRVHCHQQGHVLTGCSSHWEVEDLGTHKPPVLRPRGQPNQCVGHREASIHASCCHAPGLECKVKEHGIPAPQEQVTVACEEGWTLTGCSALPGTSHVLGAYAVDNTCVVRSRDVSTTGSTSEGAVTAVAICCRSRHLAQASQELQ
T1 sequence (Q8NBP7 31-152 partner limits assumed): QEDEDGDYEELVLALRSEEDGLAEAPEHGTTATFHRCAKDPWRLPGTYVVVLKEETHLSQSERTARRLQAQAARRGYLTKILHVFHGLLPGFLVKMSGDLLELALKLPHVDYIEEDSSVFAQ

| Compound | inhibition in the PCSK9Δhelix/Ab20 binding assay (PCSK9Δhelix) | IC50 (PCSK9Δhelix; [1]) | IC50 (His-EGF(A)-Fc; counterscreen, Example 7) | IC50 (PCSK9Δhelix; PCSK9Δhelix/Ab20 IC50, TR-FRET, Table 8D, disulfide-cyclized extension peptides) | IC50 (His-EGF(A)-Fc; [2]) | IC50 (PCSK9Δhelix; TR-FRET, Table 8D, disulfide-cyclized extension peptides, read-out: PCSK9Δhelix/Ab20 IC50) |
| --- | --- | --- | --- | --- | --- | --- |
| CC[C@H](C)[C@@H]1NC(=O)[C@H](CCCNC(=N)N)NC(=O)[C@H](CCC(N)=O)NC(=O)[C@H](CC(C)C)NC(=O)[C@H](CC(N)=O)NC(=O)[C@H](Cc2c[nH]c3ccccc23)NC(=O)[C@@H]2CCCN2C(=O)[C@H](CC(C)C)NC(=O)[C@H](CCCNC(=N)N)NC(=O)[C@@H](NC(=O)CNC(=O)CNC(=O)[C@H](CO)NC(=O)CNC(=O)[C@@H](NC(=O)[C@H](Cc2c[nH]c3ccccc23)NC(=O)[C@H](CC(=O)O)NC(=O)[C@H](CC(C)C)NC(=O)[C@H](Cc2ccc(O)cc2)NC(=O)[C@H](CCC(=O)O)NC(=O)[C@H](CCC(=O)O)NC(=O)[C@H](Cc2c[nH]c3ccccc23)NC(=O)[C@H](CO)NC(=O)[C@@H](NC(=O)[C@H](Cc2ccccc2)NC(=O)[C@@H](NC(=O)[C@@H](NC(C)=O)[C@@H](C)O)C(C)C)[C@@H](C)O)C(C)C)CSSC[C@@H](C(N)=O)NC(=O)[C@@H]2CCCN2C(=O)[C@H](CC(C)C)NC(=O)CNC1=O [Compound 25] (Ac-TVFTSWEEYLDWVGSGGCRLPWNLQRIGLPC-NH2; disulfide 18-31) | potent inhibitors | 0.083 µM | > 50 µM | – | – | – |
| CC[C@H](C)[C@@H]1NC(=O)[C@H](CCCNC(=N)N)NC(=O)[C@H](CCC(N)=O)NC(=O)[C@H](CC(C)C)NC(=O)[C@H](CC(N)=O)NC(=O)[C@H](Cc2c[nH]c3ccccc23)NC(=O)[C@@H]2CCCN2C(=O)[C@H](CC(C)C)NC(=O)[C@H](Cc2ccccc2)NC(=O)[C@@H](NC(=O)CNC(=O)CNC(=O)[C@H](CO)NC(=O)CNC(=O)[C@@H](NC(=O)[C@H](Cc2c[nH]c3ccccc23)NC(=O)[C@H](CC(=O)O)NC(=O)[C@H](CC(C)C)NC(=O)[C@H](Cc2ccc(O)cc2)NC(=O)[C@H](CCC(=O)O)NC(=O)[C@H](CCC(=O)O)NC(=O)[C@H](Cc2c[nH]c3ccccc23)NC(=O)[C@H](CO)NC(=O)[C@@H](NC(=O)[C@H](Cc2ccccc2)NC(=O)[C@@H](NC(=O)[C@@H](NC(C)=O)[C@@H](C)O)C(C)C)[C@@H](C)O)C(C)C)CSSC[C@@H](C(N)=O)NC(=O)[C@H](CC(C)C)NC(=O)[C@H](CC(C)C)NC(=O)CNC1=O [Compound 38] (Ac-TVFTSWEEYLDWVGSGGCFLPWNLQRIGLLC-NH2; disulfide 18-31) | potent inhibitors | 0.003 µM | > 50 µM | – | – | – |
| CC[C@H](C)[C@@H]1NC(=O)[C@H](CCCNC(=N)N)NC(=O)[C@H](CCCCN)NC(=O)[C@H](CC(C)C)NC(=O)[C@H](CC(N)=O)NC(=O)[C@H](Cc2c[nH]c3ccccc23)NC(=O)[C@@H](NC(=O)CNC(=O)[C@H](CO)NC(=O)CNC(C)=O)CSSC[C@@H](C(=O)N[C@@H](Cc2c[nH]c3ccccc23)C(N)=O)NC(=O)CNC(=O)[C@H](CCC(N)=O)NC(=O)[C@H](CO)NC(=O)CNC1=O [Compound 40] (Ac-GSGCWNLKRIGSQGCW-NH2; disulfide 4-15) | – | – | – | 2.41 µM | > 50 µM | – |
| CC[C@H](C)[C@@H]1NC(=O)[C@H](CCCNC(=N)N)NC(=O)[C@H](CCCCN)NC(=O)[C@H](CC(C)C)NC(=O)[C@H](CC(N)=O)NC(=O)[C@H](Cc2c[nH]c3ccccc23)NC(=O)[C@H](CC(C)C)NC(=O)[C@@H](NC(=O)[C@H](CCSC)NC(C)=O)CSSC[C@@H](C(=O)N[C@@H](CCC(=O)O)C(=O)N[C@@H](Cc2ccc(O)cc2)C(N)=O)NC(=O)[C@H](CCC(N)=O)NC(=O)[C@H](CO)NC(=O)CNC1=O [Compound 63] (Ac-MCLWNLKRIGSQCEY-NH2; disulfide 2-13) | low micromolar range | – | – | – | 41 µM | 6 µM |
| CC(=O)N[C@H]1CSSC[C@@H](C(N)=O)NC(=O)CCCCCCCCCCNC(=O)[C@H](CCCNC(=N)N)NC(=O)[C@H](CCC(N)=O)NC(=O)[C@H](CC(C)C)NC(=O)[C@H](CC(N)=O)NC(=O)[C@H](Cc2c[nH]c3ccccc23)NC(=O)[C@@H]2CCCN2C(=O)[C@H](CC(C)C)NC(=O)[C@H](CCCNC(=N)N)NC1=O [Compound 83] (Ac-CRLPWNLQR[Aun]C-NH2; disulfide 1-11 (inferred)) | removes inhibition | – | – | – | > 50 µM | – |
